From patent publication US10822337B2, “TGF-β inhibitorC” (Rigel Pharmaceuticals, Inc., priority 2015, dated 2020)

How the values were obtained:
[1] = test system: TGF-β signaling (TGF-β pSMAD, MPC-11); assay: AlphaScreen SureFire SMAD3 (p-Ser423/425) assay, inhibition of TGF-β signaling; assay type: cell-based; settings: Mus musculus, p-SMAD-3 (Ser423/425) in cell lysate after TGF-β stimulation
Procedure, shortened: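 Phosphorylation of endogenous SMAD-3 at Ser423/425 was quantified with an AlphaScreen SureFire assay. Cells were exposed to compound for about 10 minutes, stimulated with TGF-β, and lysed in 1× Lysis Buffer. Lysate (5 μL) was combined with Reaction/Activation buffer plus Acceptor beads for 2 hours, then Donor beads for 1½ hours, and read on a plate reader.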

[2] = test system: GDF8 signaling (GDF pSMAD, MPC11); assay: AlphaScreen SureFire SMAD3 (p-Ser423/425) assay, inhibition of GDF8 signaling; assay type: cell-based; settings: Mus musculus, MPC-11, p-SMAD-3 (Ser423/425) in cell lysate after GDF8 stimulation

Row | SMILES | IC50 [1] | IC50 [2]
1 | Fc1ccc(-c2nn3c(c2-c2ccc4ncsc4c2)CCC3)c(F)c1F [Compound 131, 6-(2-(2,3,4-Trifluorophenyl)-5,6-dihydro-4H-pyrrolo[1,2-b]pyrazol-3-yl)benzo[d]thiazole] | 946 nM | 286 nM
2 | Cc1cc(-c2nn3c(c2-c2ccc4ncccc4c2)CCC3)ccc1F [Compound 47, 6-(2-(4-Fluoro-3-methylphenyl)-5,6-dihydro-4H-pyrrolo[1,2-b]pyrazol-3-yl)quinoline] | 2520 nM | 335 nM
3 | FC(F)(F)c1cccc(-c2nn3c(c2-c2ccc4cn[nH]c4c2)CCC3)c1 [Compound 32, 6-(2-(3-Trifluoromethylphenyl)-5,6-dihydro-4H-pyrrolo[1,2-b]pyrazol-3-yl)-1H-indazole] | 292 nM | 45.1 nM
4 | Clc1ccccc1-c1nn2c(c1-c1ccc3ncsc3c1)CCC2 [Compound 120, 6-(2-(2-Chlorophenyl)-5,6-dihydro-4H-pyrrolo[1,2-b]pyrazol-3-yl)benzo[d]thiazole] | 5560 nM | 872 nM
5 | Fc1ccc(Cl)cc1-c1nn2c(c1-c1ccc3cn[nH]c3c1)CCC2 [Compound 174, 6-(2-(5-Chloro-2-fluorophenyl)-5,6-dihydro-4H-pyrrolo[1,2-b]pyrazol-3-yl)-1H-indazole] | 153 nM | 36.7 nM
6 | COc1cccc(-c2nn3c(c2-c2ccc4ncccc4c2)OCC3)c1 [Compound 75, 6-(3-Methoxyphenyl)-7-(quinolin-6-yl)-2,3-dihydropyrazolo[5,1-b]oxazole] | 7240 nM | 1240 nM
7 | Fc1ccccc1-c1nn2c(c1-c1ccc3ncsc3c1)CCC2 [Compound 201, 6-(2-(2-fluorophenyl)-5,6-dihydro-4H-pyrrolo[1,2-b]pyrazol-3-yl)benzo[d]thiazole] | 1460 nM | 225 nM
8 | Fc1ccccc1-c1nn2c(c1-c1ccc3cn[nH]c3c1)CCC2 [Compound 134, 6-(2-(2-Fluorophenyl)-5,6-dihydro-4H-pyrrolo[1,2-b]pyrazol-3-yl)-1H-indazole] | 6060 nM | 901 nM
9 | Fc1cc(F)c(-c2nn3c(c2-c2ccc4nccn4c2)CCC3)cc1Cl [Compound 188, 6-(2-(5-Chloro-2,4-difluorophenyl)-5,6-dihydro-4H-pyrrolo[1,2-b]pyrazol-3-yl)imidazo[1,2-a]pyridine] | 81.7 nM | 63 nM
10 | Fc1ccc(-c2nn3c(c2-c2ccc4ncsc4c2)OCC3)cc1 [Compound 68, 7-(Benzo[d]thiazol-6-yl)-6-(4-fluorophenyl)-2,3-dihydropyrazolo[5,1-b]oxazole] | 1100 nM | 332 nM
11 | COc1cccc(-c2nn3c(c2-c2ccc4ncn(C)c4c2)OCC3)c1 [Compound 72, 6-(3-Methoxyphenyl)-7-(1-methyl-1H-benzo[d]imidazol-6-yl)-2,3-dihydropyrazolo[5,1-b]oxazole] | 664 nM | 233 nM
12 | Fc1ccc(-c2nn3c(c2-c2ccc4ncsc4c2)CCC3)c(F)c1 [Compound 97, 6-(2-(2,4-Difluorophenyl)-5,6-dihydro-4H-pyrrolo[1,2-b]pyrazol-3-yl)benzo[d]thiazole] | 116 nM | 26.2 nM
13 | Cc1cc(-c2nn3c(c2-c2ccc4nccn4c2)CCC3)c(F)cc1F [Compound 181, 6-(2-(2,4-Difluoro-5-methylphenyl)-5,6-dihydro-4H-pyrrolo[1,2-b]pyrazol-3-yl)imidazo[1,2-a]pyridine] | 380 nM | 204 nM
14 | Cc1cc(-c2nn3c(c2-c2ccc4ncccc4c2)CCC3)c(F)cc1F [Compound 183, 6-(2-(2,4-Difluoro-5-methylphenyl)-5,6-dihydro-4H-pyrrolo[1,2-b]pyrazol-3-yl)quinoline] | 1640 nM | 463 nM
15 | COc1ccc(F)c(-c2nn3c(c2-c2ccc4nccnc4c2)CCC3)c1 [Compound 165, 6-(2-(2-Fluoro-5-methoxyphenyl)-5,6-dihydro-4H-pyrrolo[1,2-b]pyrazol-3-yl)quinoxaline] | 29 nM | 7.2 nM
16 | COc1cccc(-c2nn3c(c2-c2ccc4ncccc4c2)CCC3)c1 [Compound 48, 6-(2-(3-Methoxyphenyl)-5,6-dihydro-4H-pyrrolo[1,2-b]pyrazol-3-yl)quinoline] | 4460 nM | 610 nM
17 | COc1cccc(-c2nn3c(c2-c2ccc4nccn4c2)CCC3)c1 [Compound 21, 6-(2-(3-Methoxyphenyl)-5,6-dihydro-4H-pyrrolo[1,2-b]pyrazol-3-yl)imidazo[1,2-a]pyridine] | 1040 nM | 310 nM
18 | Cc1c(F)ccc(-c2nn3c(c2-c2ccc4cn[nH]c4c2)CCC3)c1F [Compound 168, 6-(2-(2,4-Difluoro-3-methylphenyl)-5,6-dihydro-4H-pyrrolo[1,2-b]pyrazol-3-yl)-1H-indazole] | 797 nM | 414 nM
19 | Fc1ccc(-c2nn3c(c2-c2ccc4ncccc4c2)CCC3)c(F)c1 [Compound 95, 6-(2-(2,4-Difluorophenyl)-5,6-dihydro-4H-pyrrolo[1,2-b]pyrazol-3-yl)quinoline] | 3740 nM | 559 nM

Row | SMILES | IC50 [1] | IC50 [2]
20 | Cc1c(F)ccc(-c2nn3c(c2-c2ccc4nccn4c2)CCC3)c1F [Compound 169, 6-(2-(2,4-Difluoro-3-methylphenyl)-5,6-dihydro-4H-pyrrolo[1,2-b]pyrazol-3-yl)imidazo[1,2-a]pyridine] | 464 nM | 178 nM
21 | COc1cccc(-c2nn3c(c2-c2ccc4[nH]ncc4c2)CCC3)c1 [Compound 27, 5-(2-(3-Methoxyphenyl)-5,6-dihydro-4H-pyrrolo[1,2-b]pyrazol-3-yl)-1H-indazole] | 847 nM | 206 nM
22 | Fc1ccc(-c2nn3c(c2-c2ccc4ncsc4c2)CCC3)cc1 [Compound 14, 6-(2-(4-Fluorophenyl)-5,6-dihydro-4H-pyrrolo[1,2-b]pyrazol-3-yl)benzo[d]thiazole] | 976 nM | 295 nM
23 | Fc1cc(F)c(-c2nn3c(c2-c2ccc4cn[nH]c4c2)CCC3)cc1F [Compound 113, 6-(2-(2,4,5-Trifluorophenyl)-5,6-dihydro-4H-pyrrolo[1,2-b]pyrazol-3-yl)-1H-indazole] | 1470 nM | 226 nM
24 | COc1ccc(-c2nn3c(c2-c2ccc4nccnc4c2)CCC3)cc1 [Compound 102, 6-(2-(4-Methoxyphenyl)-5,6-dihydro-4H-pyrrolo[1,2-b]pyrazol-3-yl)quinoxaline] | 4180 nM | 685 nM
25 | Fc1ccc(-c2nn3c(c2-c2ccc4nccn4c2)CCC3)cc1F [Compound 86, 6-(2-(3,4-Difluorophenyl)-5,6-dihydro-4H-pyrrolo[1,2-b]pyrazol-3-yl)imidazo[1,2-a]pyridine] | 926 nM | 272 nM
26 | Cc1cccc(-c2nn3c(c2-c2ccc4ncsc4c2)OCCC3)c1 [Compound 43, 3-(benzo[d]thiazol-6-yl)-2-(m-tolyl)-6,7-dihydro-5H-pyrazolo[5,1-b][1,3]oxazine] | 501 nM | 147 nM
27 | Fc1ccc(-c2nn3c(c2-c2ccc4ncsc4c2)CCC3)cc1F [Compound 87, 6-(2-(3,4-Difluorophenyl)-5,6-dihydro-4H-pyrrolo[1,2-b]pyrazol-3-yl)benzo[d]thiazole] | 1010 nM | 364 nM
28 | Fc1ccc(-c2nn3c(c2-c2ccc4ncccc4c2)OCC3)cc1 [Compound 69, 6-(4-Fluorophenyl)-7-(quinolin-6-yl)-2,3-dihydropyrazolo[5,1-b]oxazole] | 7810 nM | 1260 nM
29 | Fc1ccc(-c2nn3c(c2-c2ccc4nccnc4c2)CCC3)c(F)c1Cl [Compound 159, 6-(2-(3-Chloro-2,4-difluorophenyl)-5,6-dihydro-4H-pyrrolo[1,2-b]pyrazol-3-yl)quinoxaline] | 2730 nM | 526 nM
30 | Fc1ccc(Cl)cc1-c1nn2c(c1-c1ccc3ncsc3c1)CCC2 [Compound 175, 6-(2-(5-Chloro-2-fluorophenyl)-5,6-dihydro-4H-pyrrolo[1,2-b]pyrazol-3-yl)benzo[d]thiazole] | 41.9 nM | 28.3 nM
31 | Fc1ccc(F)c(-c2nn3c(c2-c2ccc4ncsc4c2)CCC3)c1 [Compound 195, 6-(2-(2,5-Difluorophenyl)-5,6-dihydro-4H-pyrrolo[1,2-b]pyrazol-3-yl)benzo[d]thiazole] | 376 nM | 78.7 nM
32 | COc1cccc(-c2nn3c(c2-c2ccc4cn[nH]c4c2)CCC3)c1 [Compound 28, 6-(2-(3-Methoxyphenyl)-5,6-dihydro-4H-pyrrolo[1,2-b]pyrazol-3-yl)-1H-indazole] | 242 nM | 80.2 nM
33 | Fc1ccc(F)c(-c2nn3c(c2-c2ccc4nccnc4c2)CCC3)c1 [Compound 197, 6-(2-(2,5-Difluorophenyl)-5,6-dihydro-4H-pyrrolo[1,2-b]pyrazol-3-yl)quinoxaline] | 608 nM | 59 nM
34 | Cc1c(F)ccc(-c2nn3c(c2-c2ccc4ncccc4c2)CCC3)c1F [Compound 171, 6-(2-(2,4-Difluoro-3-methylphenyl)-5,6-dihydro-4H-pyrrolo[1,2-b]pyrazol-3-yl)quinoline] | 1840 nM | 1220 nM
35 | Cn1cnc2ccc(-c3c(-c4ccc(F)cc4F)nn4c3CCC4)cc21 [Compound 93, 6-(2-(2,4-Difluorophenyl)-5,6-dihydro-4H-pyrrolo[1,2-b]pyrazol-3-yl)-1-methyl-1H-benzo[d]imidazole] | 319 nM | 77.2 nM
36 | Clc1cccc(-c2nn3c(c2-c2ccc4ncsc4c2)CCC3)c1 [Compound 26, 6-(2-(3-Chlorophenyl)-5,6-dihydro-4H-pyrrolo[1,2-b]pyrazol-3-yl)benzo[d]thiazole] | 133 nM | 67 nM
37 | Clc1ccccc1-c1nn2c(c1-c1ccc3ncnn3c1)CCC2 [Compound 121, 6-(2-(2-Chlorophenyl)-5,6-dihydro-4H-pyrrolo[1,2-b]pyrazol-3-yl)-[1,2,4]triazolo[1,5-a]pyridine] | 949 nM | 340 nM
